Measured values reported in patent US7407645B2, “Bioconjugates of metal complexes of nitrogen-containing macrocyclic ligands” (Metaphore Pharmaceuticals, Inc., priority 1995, dated 2008).

Assay: Relaxivity R1 from proton relaxation times (T1), inversion-recovery, 20 MHz
Type: physicochemical
Design: unit not given here
Details: 100 mM Hepes buffer, pH=7.4, 40° C., slope of 1/T1 versus concentration
Method: Relaxivity measurements of the complex of Example 1 was determined.
Proton relaxation times (T1) of the sample in 100 mM Hepes buffer, pH=7.4, at 40° C. were determined from a monoexponential curve fit obtained from inversion-recovery pulse sequences (180°-τ-90°) with a Bruker PC 120/125/10 VTs NMR process analyzer. The spectrometer was calibrated for each sample to assure accurate duration of 90° and 180° radio frequency pulses and appropriate magnetic field strength to match the 20 MHz system operating frequency. The relaxivity (R1) was obtained from the slope of a plot of 1/T1 versus the concentration of paramagnetic compound.

[Manganese (II) dichloro 2,3-(R,R)-Cyclohexano-6-(S)-{3-(lithocholylamino)-propyl}-1,4,7,10,13-penta-azacclopentadecane] [Example 1]
relaxivity R1: 6.09
